Experimental data as given in ChEMBL document CHEMBL5038669, “Development of the First Covalent Monopolar Spindle Kinase 1 (MPS1/TTK) Inhibitor” (J Med Chem, 2022).
The source made the active and inactive calls. No cut-off for these calls is given here.

Assays:
Hep 3B2 [1] = test: Induction of cell senescence in human Hep3B cells at 200 uM measured up to 5 days by SA-beta-gal-staining based assay; format: functional; conditions: time day <=5
[2] = molecular target: T1, Dual specificity protein kinase TTK (Homo sapiens, UniProt P33981); test: Inhibition of recombinant human full length N-terminal GST-fused MPS1 (1 to 857 residues) using histone H3 as substrate by TR-FRET assay
T1 sequence (P33981 whole entry): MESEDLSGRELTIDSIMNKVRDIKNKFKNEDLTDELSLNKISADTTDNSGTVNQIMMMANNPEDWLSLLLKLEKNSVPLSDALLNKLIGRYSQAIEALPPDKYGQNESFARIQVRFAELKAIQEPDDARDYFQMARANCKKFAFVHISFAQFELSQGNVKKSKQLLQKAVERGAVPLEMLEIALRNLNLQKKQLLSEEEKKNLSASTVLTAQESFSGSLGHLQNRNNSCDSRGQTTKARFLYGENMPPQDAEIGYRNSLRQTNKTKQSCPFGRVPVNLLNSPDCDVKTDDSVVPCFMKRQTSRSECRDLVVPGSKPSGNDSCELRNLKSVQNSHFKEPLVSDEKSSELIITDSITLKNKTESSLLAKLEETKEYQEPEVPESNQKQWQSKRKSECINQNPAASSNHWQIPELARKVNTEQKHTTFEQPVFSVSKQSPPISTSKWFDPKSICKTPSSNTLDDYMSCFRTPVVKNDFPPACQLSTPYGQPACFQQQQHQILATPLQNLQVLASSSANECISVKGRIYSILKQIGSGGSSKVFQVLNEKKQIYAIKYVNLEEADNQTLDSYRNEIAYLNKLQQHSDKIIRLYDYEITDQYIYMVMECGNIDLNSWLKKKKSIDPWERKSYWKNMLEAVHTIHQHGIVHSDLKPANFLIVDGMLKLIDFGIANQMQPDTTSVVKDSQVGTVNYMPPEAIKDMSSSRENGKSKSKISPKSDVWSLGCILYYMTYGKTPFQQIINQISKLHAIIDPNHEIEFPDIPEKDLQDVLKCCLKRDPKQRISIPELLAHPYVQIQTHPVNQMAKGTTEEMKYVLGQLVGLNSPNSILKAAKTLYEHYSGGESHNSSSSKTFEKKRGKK

HCT-116 [3] = test: Induction of apoptosis in human HCT-116 cells assessed as upregulation of p53 expression measured after 3 days by Western blot analysis; format: functional, cell-based; conditions: time 3.0 day
Hep 3B2 [4] = test: Induction of apoptosis in human Hep3B cells assessed as down regulation of cyclin B1 expression at 200 nM measured upto 5 days by Western blot analysis; format: functional, cell-based; conditions: time day <=5
[5] = molecular target: T2, Dual specificity protein kinase TTK (Homo sapiens) (UniProt P33981); test: Displacement of tracer K9 from NanoLuc-fused MPS1 (unknown origin) expressed in HEK293T cells at 10 fold IC50 preincubated for 2 hrs followed by compound washout by NanoBRET assay; format: cell-based
T2 sequence (whole entry): T1 sequence (P33981 whole entry)

[6] = molecular target: T1, Dual specificity protein kinase TTK; test: Displacement of tracer K9 from NanoLuc-fused MPS1 (unknown origin) expressed in HEK293T cells measured after 2 hrs by NanoBRET assay; format: cell-based
Hep 3B2 [7] = test: Induction of apoptosis in human Hep3B cells assessed as increase in p21 expression level at 200 nM measured upto 5 days by Western blot analysis; format: functional, cell-based; conditions: time day <=5
Hep 3B2 [8] = test: Synergistic antiproliferative activity against human Hep3B cells at 200 nM measured after 5 days in presence of navitoclax by crystal violet staining based assay; format: functional, cell-based; conditions: time 5.0 day
HT-29 = test: Antiproliferative activity against human HT-29 cells; format: functional, cell-based
HCT-15 = test: Cytotoxicity against human HCT-15 cells assessed as reduction in cell viability incubated for 5 days by XTT assay; format: functional, cell-based; conditions: time 5.0 day
[9] = molecular target: T1, Dual specificity protein kinase TTK; test: Inhibition of recombinant human full length N-terminal GST-fused MPS1 (1 to 857 residues) using histone H3 as substrate measured after 2 hrs in presence of DTT by TR-FRET assay
Huh-7 = test: Induction of apoptosis in human Huh-7 cells assessed as increase in p21 expression level at 200 nM measured upto 5 days by Western blot analysis; format: functional, cell-based; conditions: time day <=5
PLC-PRF-5 = test: Antiproliferative activity against human Alex cells incubated for 5 days by XTT assay; format: functional, cell-based; conditions: time 5.0 day
SNU-387 [10] = test: Synergistic antiproliferative activity against human SNU-387 cells at 200 nM measured after 5 days in presence of navitoclax by crystal violet staining based assay; format: functional, cell-based; conditions: time 5.0 day
HuH-6 = test: Antiproliferative activity against human HuH-6 cells incubated for 5 days by XTT assay; format: functional, cell-based; conditions: time 5.0 day
Hep 3B2 [11] = test: Antiproliferative activity against human Hep3B cells incubated for 5 days by XTT assay; format: functional, cell-based; conditions: time 5.0 day
MDA-MB-468 = test: Cytotoxicity against human MDA-MB-468 cells assessed as reduction in cell viability incubated for 5 days by XTT assay; format: functional, cell-based; conditions: time 5.0 day
SNU-387 [12] = test: Induction of cell senescence in human SNU-387 cells at 200 uM measured up to 5 days by SA-beta-gal-staining based assay; format: functional; conditions: time day <=5
[13] = molecular target: T1, Dual specificity protein kinase TTK; test: Inhibition of recombinant human full length N-terminal GST-fused MPS1 (1 to 857 residues) using histone H3 as substrate measured after 1 hr in presence of DTT by TR-FRET assay
[14] = molecular target: T2, Dual specificity protein kinase TTK (Homo sapiens); test: Covalent inhibition of human full length N-terminal GST-fused MPS1 (1 to 857 residues) assessed as Kinact by TR-FRET assay
[15] = molecular target: MAP kinase-activated protein kinase 2 (Homo sapiens, UniProt P49137); test: Inhibition of human recombinant MAPKAPK2 expressed in Sf9 insect cells using [KKLNRTLSVA] as substrate in presence of [33P]-ATP by radiometric hotspot kinetic assay
MAP kinase-activated protein kinase 2, sequence (P49137 whole entry): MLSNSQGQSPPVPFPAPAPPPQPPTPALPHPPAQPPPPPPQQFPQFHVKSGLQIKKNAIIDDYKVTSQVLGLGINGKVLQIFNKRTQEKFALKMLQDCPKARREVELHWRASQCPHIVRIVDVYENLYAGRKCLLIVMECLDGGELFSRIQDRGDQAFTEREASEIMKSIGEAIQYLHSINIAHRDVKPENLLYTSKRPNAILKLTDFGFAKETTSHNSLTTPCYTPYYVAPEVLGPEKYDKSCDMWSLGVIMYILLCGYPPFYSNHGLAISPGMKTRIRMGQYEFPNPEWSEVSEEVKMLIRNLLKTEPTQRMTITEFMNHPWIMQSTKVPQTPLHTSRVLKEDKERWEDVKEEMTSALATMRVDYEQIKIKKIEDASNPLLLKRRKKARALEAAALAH

SNU-387 [16] = test: Antiproliferative activity against human SNU-387 cells incubated for 5 days by XTT assay; format: functional, cell-based; conditions: time 5.0 day
HCT-116 [17] = test: Antiproliferative activity against human HCT-116 cells; format: functional, cell-based
HCT-116 [18] = test: Cytotoxicity against human HCT-116 cells assessed as reduction in cell viability incubated for 5 days by XTT assay; format: functional, cell-based; conditions: time 5.0 day
MDA-MB-231 = test: Cytotoxicity against human MDA-MB-231cells assessed as reduction in cell viability incubated for 5 days by XTT assay; format: functional, cell-based; conditions: time 5.0 day
[19] = molecular target: T1, Dual specificity protein kinase TTK; test: Covalent inhibition of human full length N-terminal GST-fused MPS1 (1 to 857 residues) assessed as inhibition constant by TR-FRET assay
HCT-116 [20] = test: Induction of apoptosis in human HCT-116 cells assessed as down regulation of cyclin B1 expression measured after 3 days by Western blot analysis; format: functional, cell-based; conditions: time 3.0 day
[21] = Microsomal stability in mouse liver microsomes assessed as half life at 100 uM pre-incubated for 5 mins with NADPH- regenerating system followed by liver microsomal addition and measured upto 120 mins by HPLC analysis; format: ADME, Microsome; conditions: time <=125 min
Hep 3B2 [22] = test: Induction of apoptosis in human Hep3B cells assessed as increase in phospho-gammaH2A.X expression level at 200 nM measured upto 5 days by Western blot analysis; format: functional, cell-based; conditions: time day <=5
HCT-116 [23] = test: Induction of apoptosis in human HCT-116 cells assessed as upregulation of phospho-gammaH2A.X expression measured after 3 days by Western blot analysis; format: functional, cell-based; conditions: time 3.0 day
Hep 3B2 [24] = test: Induction of apoptosis in human Hep3B cells assessed as increase in cleaved PARP level at 200 nM measured upto 5 days by Western blot analysis; format: functional, cell-based; conditions: time day <=5

## C=CC(=O)Nc1cc(N2CCN(C)CC2)ccc1Nc1ncc2c(n1)-n1ccc(C(=O)Nc3c(CC)cccc3CC)c1CC2
Hep 3B2 [1]
  Activity: Active
[2]
  IC50: 13 nM
  Ki: 0.83 nM
HCT-116 [3]
  Activity: Active
Hep 3B2 [4]
  Activity: Active
[5]
  Activity: 50%
[6]
  IC50: 22.4 nM
Hep 3B2 [7]
  Activity: Active
Hep 3B2 [8]
  Activity: Active
HT-29
  Activity: Active
HCT-15
  Activity: Active
[9]
  IC50: 20 nM
Huh-7
  Activity: Active
PLC-PRF-5
  Activity: Active
SNU-387 [10]
  Activity: Active
HuH-6
  Activity: Active
Hep 3B2 [11]
  Activity: Active
MDA-MB-468
  Activity: Active
SNU-387 [12]
  Activity: Active
[13]
  IC50: 28.1 nM
[14]
  Kinact: 0.000242 s⁻¹
[15]
  IC50: > 5000 nM
SNU-387 [16]
  Activity: Active
HCT-116 [17]
  Activity: Active
HCT-116 [18]
  Activity: Active
MDA-MB-231
  Activity: Active
[19]
  Ki: 14.2 nM
HCT-116 [20]
  Activity: Active
[21]
  half-life at 100 µM: 1 h
Hep 3B2 [22]
  Activity: Active
HCT-116 [23]
  Activity: Active
Hep 3B2 [24]
  Activity: Active
